{"source": "ChEMBL document CHEMBL4024761", "about": "“Protac-Induced Protein Degradation in Drug Discovery: Breaking the Rules or Just Making New Ones?” (J Med Chem, 2018)", "key": {"[1]": {"target": "von Hippel-Lindau disease tumor suppressor/Receptor-interacting serine/threonine-protein kinase 2 (Homo sapiens, UniProt O43353+P40337)", "sequence (O43353 whole entry)": "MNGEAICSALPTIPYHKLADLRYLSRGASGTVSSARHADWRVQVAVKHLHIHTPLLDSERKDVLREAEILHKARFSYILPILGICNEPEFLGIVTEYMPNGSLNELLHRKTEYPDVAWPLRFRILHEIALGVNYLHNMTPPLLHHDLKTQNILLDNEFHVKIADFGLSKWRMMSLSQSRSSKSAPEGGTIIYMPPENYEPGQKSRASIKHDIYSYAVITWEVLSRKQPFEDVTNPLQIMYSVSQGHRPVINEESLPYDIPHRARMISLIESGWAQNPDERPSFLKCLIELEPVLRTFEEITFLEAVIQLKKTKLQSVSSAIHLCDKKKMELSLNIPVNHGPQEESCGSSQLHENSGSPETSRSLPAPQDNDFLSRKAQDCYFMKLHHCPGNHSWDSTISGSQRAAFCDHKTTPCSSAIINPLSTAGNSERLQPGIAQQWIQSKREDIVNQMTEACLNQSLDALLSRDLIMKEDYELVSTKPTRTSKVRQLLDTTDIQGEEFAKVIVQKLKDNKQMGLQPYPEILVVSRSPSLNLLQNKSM", "sequence (P40337 whole entry)": "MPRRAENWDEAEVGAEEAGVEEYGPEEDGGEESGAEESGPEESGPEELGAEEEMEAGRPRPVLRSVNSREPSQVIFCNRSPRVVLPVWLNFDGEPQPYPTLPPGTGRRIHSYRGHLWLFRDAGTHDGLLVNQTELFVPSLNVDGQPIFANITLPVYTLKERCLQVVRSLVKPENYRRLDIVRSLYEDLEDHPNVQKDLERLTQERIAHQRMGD", "assay": "Proteolysis targeting chimera activity in human THP1 cells assessed as induction of VHL-mediated delivery of RIPK2 for protein degradation by proteasome by measuring drug level causing 50% cellular protein depletion incubated for 16 hrs by Western blotting method", "assay_type": "cell-based"}, "[2]": {"target": "von Hippel-Lindau disease tumor suppressor (Homo sapiens, UniProt P40337)", "sequence (P40337 whole entry)": "as above", "assay": "Binding affinity to VHL (unknown origin) assessed as reduction of HIF1alpha derived peptide binding to VHL complex by competitive binding fluorescence polarization assay"}}, "note": "pKd: −log10 of the molar value."}
{"molecule": "Cc1ncsc1-c1ccc(CNC(=O)[C@@H]2C[C@@H](O)CN2C(=O)[C@@H](NC(=O)COCCOCCOCCOCCOc2cc3nccc(Nc4ccc5scnc5c4)c3cc2S(=O)(=O)C(C)(C)C)C(C)(C)C)cc1", "values": [{"measurement": "DC50", "setting": "[1]", "result": 0.001, "unit": "µM"}, {"measurement": "pKd", "setting": "[2]", "result": 6.30}]}
